In patent US20020137154A1, “Methods for improving cell growth and alcohol production during fermentation” (priority 2000, published 2002):

Tested on: recombinant Escherichia coli KO11
Test: Batch fermentation of E. coli KO11 in Luria broth and xylose with nutrient additives: ethanol production and cell growth
Type: cell-based
Settings: LB+xylose
Experimental: Two types of media were tested: 1% CSL and Luria broth (LB). Each contained 97 g of either xylose or glucose per liter. Luria Broth consists of, per liter: 10 g Difco® Tryptone, 5 g Difco® Yeast Extract and 5 g NaCl. The 1% CSL medium consists of Corn Steep Liquor (1% w/v) plus mineral salts (mineral salts per liter: 1 g of KH2PO4. 0.5 g of K2HPO4, 3.1 g of (NH4)2SO4, 0.4 g of MgCl2·6H2), and 20 mg FeCl3·6H2O).
Luria Broth was prepared by autoclaving a 2× nutrient stock containing, per liter: 20 g Difco® Tryptone, 10 g Difo® Yeast Extract, and 10 g NaCl. Sugars (xylose or glucose) were autoclaved separately. A 1% CSL medium was prepared as follows: Commercial Corn Steep Liquor (CSL; 50% dry weight/50% water) was diluted with tap water to make a 20X stock containing 100 g dry weight of Corn Steep Liquor/L and was adjusted to pH 7.2 with NaOH (50%). After sterilization by autoclaving, the 20X CSL stock was clarified by centrifugation at 5000×g for 10 minutes. Magnesium was added as a 100× stock solution (40 g/L MgCl2·6H2O). Iron was added as a 1000× stock solution made by dissolving 20 g FeCl3·6H2O in 175 mL of HCl and adjusting to 1 L with sterile water. Nitrogen, sulfur and phosphorus were added using a 20× stock solution containing the following (per liter): 20 g of KH2PO4, 10 g of K2HPO4 and 62 g of (NH4)2SO4. Stock solutions containing minerals were sterilized separately by autoclaving. Final media was prepared by adding 750 mL of water to 1 L bottle containing 100 g of xylose or glucose.
Inocula were grown in same media used for fermentation and were prepared as follows. Three colonies from a fresh plate were used to inoculate seed cultures: 250-mL flask containing 100 mL medium. These cultures were grown with agitation (120 rpm) for 12-16 hours at 35° C. to a final OD550nm of approximately 2.0-2.5. Cells were harvested by centrifugation at 5000×g for 5 minutes, and resuspended in fresh media to an OD550nm of 0.1. The resulting suspension was distributed into 500-mL beakers containing 345 ml each of fermentation medium. Acetaldehyde was added as indicated. Batch fermentations (35° C., 100 rpm) were maintained at pH 6.5 by the automatic addition of 2N KOH. Cell mass, ethanol, and base addition (2N KOH) were recorded during 96 hours of incubation.
Equivalent amounts of distilled water were added instead of the acetaldehyde in control experiments.
Additives (e.g., as listed in Table 1) were dissolved in 5 mL di-H2O. Solutions with pH lower than 5 were neutralized to pH 6.5 with 2N KOH. Nutritional supplements were then filter-sterilized (0.45 μm filter disk) directly into the fermentation vessel containing the culture. The final concentration of all additives in the culture medium was 2 g/L unless otherwise indicated.
Cell mass was estimated by measuring OD550nm using Baush & Lomb® Spectronic 70 spectrophotometer. […] Ethanol was measured by gas chromatography using a Varian® 3400 CX gas chromatograph with 1-propanol as an internal standard.
Tables 1, 3, and 5 show time to completion of fermentation, ethanol production, and volumetric productivity of the fermentation for all concentrations of the compound and the control. Maximum ethanol production is shown in grams/liter (g/L). The ethanol yield is shown in grams of ethanol/grams of added sugar. Maximum volumetric productivity is shown in grams ethanol/(liter)(hour). The average productivity is calculated form the start of fermentation to the completion of fermentation is grams ethanol/(liter)hour).
Tables 2, 4, and 6 show the initial growth of the cells (OD taken after the first 24 hours of fermentation) and the maximum cell density (the time which culture reaches the maximum OD value).
Acetaldehyde was added to the fermentation medium at five different concentrations and time points. […] Where two additions are indicated, the first volume was added at the start of fermentation and the second was added after 8 hours of fermentation.

For CC=O [Acetaldehyde, acetaldehyde], the “Ethanol Production Maximum” value (0.25 g/L at start) was 43.80 g/L, the “Ethanol Production Maximum % Control” value (0.25 g/L at start) was 101.68% and the Ethanol yield (0.25 g/L at start) was 0.451 grams of ethanol/grams of added sugar. For the same molecule, the “Initial Growth (OD at 24 h) % Control” value (0.25 g/L at start) was 110.79%, the “Initial Growth (OD at 24 h) OD” value (0.25 g/L at start) was 11.07 OD and the “Maximum Cell Density % Control” value (0.25 g/L at start) was 100.20%. For the same molecule, the “Maximum Cell Density OD” value (0.25 g/L at start) was 11.07 OD, the “Maximum Cell Density Time” value (0.25 g/L at start) was 24 h and the Time to completion (0.25 g/L at start) was 48 h. For the same molecule, the “Volumetric Productivity Average” value (0.25 g/L at start) was 0.913 grams ethanol/(liter)(hour), the “Volumetric Productivity Average % Control” value (0.25 g/L at start) was 101.68% and the “Volumetric Productivity Maximum” value (0.25 g/L at start) was 1.352 grams ethanol/(liter)(hour). For the same molecule, the “Volumetric Productivity Maximum % Control” value (0.25 g/L at start) was 117.36%, the “Ethanol Production Maximum” value (0.5 + 0.25 g/L (start, 8 h)) was 41.40 g/L and the “Ethanol Production Maximum % Control” value (0.5 + 0.25 g/L (start, 8 h)) was 96.11%. For the same molecule, the Ethanol yield (0.5 + 0.25 g/L (start, 8 h)) was 0.426 grams of ethanol/grams of added sugar, the “Initial Growth (OD at 24 h) % Control” value (0.5 + 0.25 g/L (start, 8 h)) was 99.02% and the “Initial Growth (OD at 24 h) OD” value (0.5 + 0.25 g/L (start, 8 h)) was 9.89 OD. For the same molecule, the “Maximum Cell Density % Control” value (0.5 + 0.25 g/L (start, 8 h)) was 97.92%, the “Maximum Cell Density OD” value (0.5 + 0.25 g/L (start, 8 h)) was 10.81 OD and the “Maximum Cell Density Time” value (0.5 + 0.25 g/L (start, 8 h)) was 48 h. The Time to completion (0.5 + 0.25 g/L (start, 8 h)) was 48 h, the “Volumetric Productivity Average” value (0.5 + 0.25 g/L (start, 8 h)) was 0.863 grams ethanol/(liter)(hour) and the “Volumetric Productivity Average % Control” value (0.5 + 0.25 g/L (start, 8 h)) was 96.11%. The “Volumetric Productivity Maximum” value (0.5 + 0.25 g/L (start, 8 h)) was 0.904 grams ethanol/(liter)(hour), the “Volumetric Productivity Maximum % Control” value (0.5 + 0.25 g/L (start, 8 h)) was 78.52% and the “Ethanol Production Maximum” value (0.5 + 0.5 g/L (start, 8 h)) was 41.64 g/L. For the same molecule, the “Ethanol Production Maximum % Control” value (0.5 + 0.5 g/L (start, 8 h)) was 96.65%, the Ethanol yield (0.5 + 0.5 g/L (start, 8 h)) was 0.429 grams of ethanol/grams of added sugar and the “Initial Growth (OD at 24 h) % Control” value (0.5 + 0.5 g/L (start, 8 h)) was 106.98%. The “Initial Growth (OD at 24 h) OD” value (0.5 + 0.5 g/L (start, 8 h)) was 10.68 OD, the “Maximum Cell Density % Control” value (0.5 + 0.5 g/L (start, 8 h)) was 106.68% and the “Maximum Cell Density OD” value (0.5 + 0.5 g/L (start, 8 h)) was 11.78 OD. For the same molecule, the “Maximum Cell Density Time” value (0.5 + 0.5 g/L (start, 8 h)) was 48 h, the Time to completion (0.5 + 0.5 g/L (start, 8 h)) was 48 h and the “Volumetric Productivity Average” value (0.5 + 0.5 g/L (start, 8 h)) was 0.867 grams ethanol/(liter)(hour). For the same molecule, the “Volumetric Productivity Average % Control” value (0.5 + 0.5 g/L (start, 8 h)) was 96.65%, the “Volumetric Productivity Maximum” value (0.5 + 0.5 g/L (start, 8 h)) was 0.890 grams ethanol/(liter)(hour) and the “Volumetric Productivity Maximum % Control” value (0.5 + 0.5 g/L (start, 8 h)) was 77.26%. For the same molecule, the “Ethanol Production Maximum” value (0.5 g/L at start) was 42.59 g/L, the “Ethanol Production Maximum % Control” value (0.5 g/L at start) was 98.88% and the Ethanol yield (0.5 g/L at start) was 0.438 grams of ethanol/grams of added sugar. For the same molecule, the “Initial Growth (OD at 24 h) % Control” value (0.5 g/L at start) was 108.77%, the “Initial Growth (OD at 24 h) OD” value (0.5 g/L at start) was 10.86 OD and the “Maximum Cell Density % Control” value (0.5 g/L at start) was 107.97%. For the same molecule, the “Maximum Cell Density OD” value (0.5 g/L at start) was 11.92 OD, the “Maximum Cell Density Time” value (0.5 g/L at start) was 48 h and the Time to completion (0.5 g/L at start) was 48 h. For the same molecule, the “Volumetric Productivity Average” value (0.5 g/L at start) was 0.887 grams ethanol/(liter)(hour), the “Volumetric Productivity Average % Control” value (0.5 g/L at start) was 98.88% and the “Volumetric Productivity Maximum” value (0.5 g/L at start) was 1.027 grams ethanol/(liter)(hour). The “Volumetric Productivity Maximum % Control” value (0.5 g/L at start) was 89.20%, the “ethanol production as compared to the control” value (0.5 g/L at the start) was “highest amount of ethanol production” and the “initial growth and maximum cell density as compared to the control” value (0.5 g/L at the start) was “greatest initial growth and maximum cell density”. For the same molecule, the “Ethanol Production Maximum” value (0.75 g/L at start) was 42.65 g/L, the “Ethanol Production Maximum % Control” value (0.75 g/L at start) was 99.00% and the Ethanol yield (0.75 g/L at start) was 0.439 grams of ethanol/grams of added sugar. The “Initial Growth (OD at 24 h) % Control” value (0.75 g/L at start) was 105.54%, the “Initial Growth (OD at 24 h) OD” value (0.75 g/L at start) was 10.54 OD and the “Maximum Cell Density % Control” value (0.75 g/L at start) was 110.94%. For the same molecule, the “Maximum Cell Density OD” value (0.75 g/L at start) was 12.25 OD, the “Maximum Cell Density Time” value (0.75 g/L at start) was 48 h and the Time to completion (0.75 g/L at start) was 48 h. The “Volumetric Productivity Average” value (0.75 g/L at start) was 0.889 grams ethanol/(liter)(hour), the “Volumetric Productivity Average % Control” value (0.75 g/L at start) was 99.00% and the “Volumetric Productivity Maximum” value (0.75 g/L at start) was 0.916 grams ethanol/(liter)(hour). For the same molecule, the “Volumetric Productivity Maximum % Control” value (0.75 g/L at start) was 79.50%.
